Laboratory results as given in ChEMBL document CHEMBL1130093, “Synthesis and nicotinic acetylcholine receptor binding properties of exo-2-(2'-fluoro-5'-pyridinyl)-7-azabicyclo-[2.2.1]heptane: a new positron emission tomography ligand for nicotinic receptors” (J Med Chem, 1997).

Target: Neuronal acetylcholine receptor (Rattus norvegicus) (UniProt P04757+P09483+P12389+P12390+P12392+P43144+Q9JLB5+P12391+P43143+P20420+Q05941)
Assay: Kapp value towards nicotinic acetylcholine receptor was obtained from three to four independent competition binding experiments using [3H]-NCEPB
Assay type: protein-complex assay

Structure (SMILES) | K app [nM]
Clc1ccc(C2CC3CC[C@H]2N3)cn1 (stereo partly drawn) | 0.024
Fc1ccc([C@H]2CC3CCC2N3)cn1 (stereo partly drawn) | 0.02
CN1CCC[C@H]1c1cccnc1 | 6.2
